Experimental findings from patent US12180193B2, “Accelerating fibrosarcoma protein degrading compounds and associated methods of use” (Arvinas Operations, Inc., priority 2020, dated 2024) are described below.

The DC50 is the midpoint of the concentration-degradation curve. The Dmax is the greatest extent of degradation seen. A low value points to shallow degradation.

Molecules are shown by their SMILES.

For one assay, the target named is T1, BRAF V600E (Homo sapiens, UniProt P15056, V600E).
T1 construct: expressed in transfected cells
T1 sequence (P15056 whole entry V600E): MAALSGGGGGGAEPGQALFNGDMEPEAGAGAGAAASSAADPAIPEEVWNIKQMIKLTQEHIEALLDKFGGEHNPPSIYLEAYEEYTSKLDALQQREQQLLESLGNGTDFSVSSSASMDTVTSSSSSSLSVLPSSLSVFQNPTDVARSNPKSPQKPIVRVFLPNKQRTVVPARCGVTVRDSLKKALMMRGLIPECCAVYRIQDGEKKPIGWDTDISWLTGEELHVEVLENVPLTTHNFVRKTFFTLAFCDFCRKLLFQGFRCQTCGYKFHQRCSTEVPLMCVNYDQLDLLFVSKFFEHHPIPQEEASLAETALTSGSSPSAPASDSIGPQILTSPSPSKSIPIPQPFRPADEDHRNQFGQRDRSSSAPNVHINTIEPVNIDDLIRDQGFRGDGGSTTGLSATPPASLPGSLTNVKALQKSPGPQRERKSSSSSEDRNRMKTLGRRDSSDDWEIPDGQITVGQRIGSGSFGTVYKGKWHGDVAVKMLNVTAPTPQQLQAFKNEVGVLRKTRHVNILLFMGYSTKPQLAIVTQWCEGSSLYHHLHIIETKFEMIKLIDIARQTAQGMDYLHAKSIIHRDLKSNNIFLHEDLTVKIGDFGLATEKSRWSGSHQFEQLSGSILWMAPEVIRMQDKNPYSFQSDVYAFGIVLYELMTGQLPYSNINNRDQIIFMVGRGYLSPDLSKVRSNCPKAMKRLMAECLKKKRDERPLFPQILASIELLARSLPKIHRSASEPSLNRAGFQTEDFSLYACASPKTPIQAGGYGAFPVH
Kind of assay: Cellular assay of target protein degradation, T-Rex 293 cells stably transfected with HA-BRAF_V600E (HA immunofluorescence, high content imaging). It counts as cell-based. The note with it: T-Rex 293 HA-BRAF V600E; for DC50: half maximal degradation, read-out: BRaf V600E DC50; for Dmax: maximum degradation observed. The essentials:
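Doxycycline-induced (1 ng/mL) cells were treated 24 h at 37 °C with compound at 1 μM to 0.1 nM final in 0.1% DMSO. After fixation, permeabilization and blocking, anti-HA staining was imaged by high-content reading; DC50 and Dmax (% of control) were derived.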

Another assay has as its target T2, BRAF G466V (Homo sapiens, UniProt P15056, G466V).
T2 construct: expressed in transfected cells
Kind of assay: Cellular assay of target protein degradation, T-Rex 293 cells stably transfected with HA-BRAF G466V (HA immunofluorescence, high content imaging). The note with it: T-Rex 293 HA-BRAF G466V; for DC50: half maximal degradation, read-out: BRaf G466V DC50; for Dmax: maximum degradation observed. It counts as cell-based. The essentials: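 Cells expressing doxycycline-induced (0.75 ng/mL) HA-BRAF G466V were treated with compound at 30 nM to 3 pM in 0.1% DMSO for 24 hours at 37° C. After fixation and permeabilization, HA was immunostained and quantified by high content imaging to derive DC50 and Dmax.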

T2 sequence (P15056 whole entry G466V): as the sequence (P15056 whole entry V600E) above, with G466V, E600V counted along it

Take `O=C1CC[C@H](NC(=O)c2ccc(N3CCN(CCN4CCN(c5ccc(-c6cnc7[nH]cc(C(=O)c8c(F)ccc(NS(=O)(=O)N9CC[C@@H](F)C9)c8F)c7c6)cc5)CC4)CC3)cc2F)C(=O)N1` [Compound 377, 4-(4-{2-[4-(4-{3-[2,6-difluoro-3-({[(3R)-3-fluoropyrrolidin-1-yl]sulfonyl}amino)benzoyl]-1H-pyrrolo[2,3-b]pyridin-5-yl}phenyl)piperazin-1-yl]ethyl}piperazin-1-yl)-N-[(3S)-2,6-dioxopiperidin-3-yl]-2-fluorobenzamide]: on BRAF V600E, the half-maximal degradation concentration (DC50) lay in the range of 5 to 50 nM and the Dmax lay within 35 to 70%. For the same compound, at BRAF G466V, the DC50 was 1 to 10 nM and the Dmax is 35 to 70%.

For `O=C1CCC(NC(=O)c2ccc(N3CCN(CCN4CCN(c5ccc(-c6cnc7[nH]cc(C(=O)c8c(F)ccc(NS(=O)(=O)N9CC[C@@H](F)C9)c8F)c7c6)cc5)CC4)CC3)cc2F)C(=O)N1` (stereo partly drawn) [Compound 378, 4-(4-{2-[4-(4-{3-[2,6-difluoro-3-({[(3R)-3-fluoropyrrolidin-1-yl]sulfonyl}amino)benzoyl]-1H-pyrrolo[2,3-b]pyridin-5-yl}phenyl)piperazin-1-yl]ethyl}piperazin-1-yl)-N-(2,6-dioxopiperidin-3-yl)-2-fluorobenzamide], the DC50 is 5 to 50 nM on BRAF V600E and less than 1 nM at BRAF G466V. Further, the greatest degradation seen (Dmax) on BRAF V600E and on BRAF G466V was less than 35% each time.

`O=C1CC[C@H](NC(=O)N2CCCc3c(N4CC5(CN(CCc6ccc(-c7cnc8[nH]cc(C(=O)c9c(F)ccc(NS(=O)(=O)N%10CC[C@@H](F)C%10)c9F)c8c7)cc6)C5)C4)ccnc32)C(=O)N1` [Compound 379, 5-{6-[2-(4-{3-[2,6-difluoro-3-({[(3R)-3-fluoropyrrolidin-1-yl]sulfonyl}amino)benzoyl]-1H-pyrrolo[2,3-b]pyridin-5-yl}phenyl)ethyl]-2,6-diazaspiro[3.3]heptan-2-yl}-N-[(3S)-2,6-dioxopiperidin-3-yl]-1,2,3,4-tetrahydro-1,8-naphthyridine-1-carboxamide]: at BRAF V600E, the DC50 lay in the range of 50 to 500 nM and the maximal degradation (Dmax) lay within 35 to 70%. Further, on BRAF G466V, the DC50 lay within 1 to 10 nM and the Dmax lay within 35 to 70%.

`O=C1CC[C@@H](NC(=O)N2CCCc3c(N4CC5(CN(CCc6ccc(-c7cnc8[nH]cc(C(=O)c9c(F)ccc(NS(=O)(=O)N%10CC[C@@H](F)C%10)c9F)c8c7)cc6)C5)C4)ccnc32)C(=O)N1` [Compound 380, 5-{6-[2-(4-{3-[2,6-difluoro-3-({[(3R)-3-fluoropyrrolidin-1-yl]sulfonyl}amino)benzoyl]-1H-pyrrolo[2,3-b]pyridin-5-yl}phenyl)ethyl]-2,6-diazaspiro[3.3]heptan-2-yl}-N-[(3R)-2,6-dioxopiperidin-3-yl]-1,2,3,4-tetrahydro-1,8-naphthyridine-1-carboxamide]: the values for the half-maximal degradation concentration (DC50) at BRAF V600E and on BRAF G466V were greater than 500 nM and 1 to 10 nM, respectively. Moreover, at BRAF G466V, the Dmax is less than 35%.

Take `O=C1CCC(N2Cc3cc(N4CCC(N5CCC56CN(c5ccc(-c7cnc8[nH]cc(C(=O)c9c(F)ccc(NS(=O)(=O)N%10CC[C@@H](F)C%10)c9F)c8c7)cc5)C6)CC4)ccc3C2=O)C(=O)N1` (stereo partly shown) [Example 9]: at BRAF V600E, the DC50 was in the range of 50 to 500 nM and the Dmax was 35 to 70%. Moreover, on BRAF G466V, the DC50 was 1 to 10 nM and the Dmax is 35 to 70%.
